Reference: ChEMBL document CHEMBL1201862, “PubChem BioAssay data set” (2004)
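All cell lines were grown in 96-well plates and treated with compound for 48 hours. At the GI50, growth is halved.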 Active and inactive are the calls of the source. No stated cut-off is given here; in the data, active = GI50 up to about 1.1 µM and inactive = higher.

Tests used:
Assay in all cases: NCI tumour cell line growth inhibition, 48 h
[1] = tested on: KM-20L2
[2] = tested on: 786-0
[3] = tested on: OVCAR-5
[4] = tested on: U-251
[5] = tested on: SF-539
[6] = tested on: SNB-78
[7] = tested on: SF-295
[8] = tested on: HT-29
[9] = tested on: NCI-H460
[10] = tested on: CAKI-1
[11] = tested on: LOX IMVI
[12] = tested on: LXFL 529
[13] = tested on: TK-10
[14] = tested on: SN12C
[15] = tested on: HCC 2998
[16] = tested on: DLD-1
[17] = tested on: RXF 393
[18] = tested on: K562
[19] = tested on: M14
[20] = tested on: DMS-273
[21] = tested on: OVCAR-8
[22] = tested on: HOP-62
[23] = tested on: SW-620
[24] = tested on: UACC-257
[25] = tested on: KM12
[26] = tested on: SF-268
[27] = tested on: HL-60
[28] = tested on: OVCAR-3
[29] = tested on: SK-MEL-28
[30] = tested on: M19-MEL
[31] = tested on: NCI-H226
[32] = tested on: DMS-114
[33] = tested on: XF498
[34] = tested on: SNB-19
[35] = tested on: SK-MEL-5
[36] = tested on: MOLT-4
[37] = tested on: UACC-62
[38] = tested on: HCT-116
[39] = tested on: RXF 631
[40] = tested on: SK-MEL-2
[41] = tested on: ACHN
[42] = tested on: NCI-H23
[43] = tested on: SNB-75
[44] = tested on: HOP-92
[45] = tested on: OVCAR-4
[46] = tested on: Malme-3M
[47] = tested on: A498
[48] = tested on: RPMI-8226
[49] = tested on: A549
[50] = tested on: HOP-18
[51] = tested on: IGROV-1
[52] = tested on: HCT-15
[53] = tested on: UO-31
[54] = tested on: EKVX
[55] = tested on: COLO 205
[56] = tested on: NCI-H522
[57] = tested on: CCRF-CEM
[58] = tested on: SK-OV-3
[59] = tested on: SR

For `CCCCC(C(=O)C(=O)Nc1ccc(C)cc1C)C(=O)C(C)C` (stereo not given), the GI50 [1] was > 100 µM (inactive), the GI50 [2] was > 100 µM (inactive) and the GI50 [3] was > 100 µM (inactive). For the same compound, the GI50 [4] was > 100 µM (inactive), the GI50 [5] was > 100 µM (inactive) and the GI50 [6] was > 100 µM (inactive). The GI50 [7] was > 100 µM (inactive), the GI50 [8] was > 100 µM (inactive) and the GI50 [9] was > 100 µM (inactive). For the same compound, the GI50 [10] was > 100 µM (inactive), the GI50 [11] was > 100 µM (inactive) and the GI50 [12] was > 100 µM (inactive). The GI50 [13] was > 100 µM (inactive), the GI50 [14] was > 100 µM (inactive) and the GI50 [15] was > 100 µM (inactive). For the same compound, the GI50 [16] was > 100 µM (inactive), the GI50 [17] was > 100 µM (inactive) and the GI50 [18] was > 100 µM (inactive). The GI50 [19] was > 100 µM (inactive), the GI50 [20] was > 100 µM (inactive) and the GI50 [21] was > 100 µM (inactive). The GI50 [22] was > 100 µM (inactive), the GI50 [23] was > 100 µM (inactive) and the GI50 [24] was > 100 µM (inactive). The GI50 [25] was > 100 µM (inactive), the GI50 [26] was > 100 µM (inactive) and the GI50 [27] was > 100 µM (inactive). The GI50 [28] was > 100 µM (inactive), the GI50 [29] was > 100 µM (inactive) and the GI50 [30] was > 100 µM (inactive). The GI50 [31] was > 100 µM (inactive), the GI50 [32] was > 100 µM (inactive) and the GI50 [33] was > 100 µM (inactive). The GI50 [34] was > 100 µM (inactive), the GI50 [35] was > 100 µM (inactive) and the GI50 [36] was > 100 µM (inactive). For the same compound, the GI50 [37] was > 100 µM (inactive), the GI50 [38] was > 100 µM (inactive) and the GI50 [39] was > 100 µM (inactive). For the same compound, the GI50 [40] was > 100 µM (inactive), the GI50 [41] was > 100 µM (inactive) and the GI50 [42] was > 100 µM (inactive). For the same compound, the GI50 [43] was > 100 µM (inactive), the GI50 [44] was > 100 µM (inactive) and the GI50 [45] was > 100 µM (inactive). For the same compound, the GI50 [46] was > 100 µM (inactive), the GI50 [47] was > 100 µM (inactive) and the GI50 [48] was > 100 µM (inactive). For the same compound, the GI50 [49] was > 100 µM (inactive), the GI50 [50] was > 100 µM (inactive) and the GI50 [51] was > 100 µM (inactive). For the same compound, the GI50 [52] was over 100 µM, the GI50 [53] was > 100 µM (inactive) and the GI50 [54] was > 100 µM (inactive).

With `O=C(O)C1CC2CC(=O)C1C2` (stereo not given) the GI50 [1] was > 100 µM (inactive), the GI50 [2] was > 100 µM (inactive) and the GI50 [3] was > 100 µM (inactive). The GI50 [4] was > 100 µM (inactive), the GI50 [5] was > 100 µM (inactive) and the GI50 [6] was > 100 µM (inactive). For the same compound, the GI50 [7] was > 100 µM (inactive), the GI50 [8] was > 100 µM (inactive) and the GI50 [9] was > 100 µM (inactive). The GI50 [10] was > 100 µM (inactive), the GI50 [11] was > 100 µM (inactive) and the GI50 [12] was > 100 µM (inactive). For the same compound, the GI50 [13] was > 100 µM (inactive), the GI50 [14] was > 100 µM (inactive) and the GI50 [16] was > 100 µM (inactive). The GI50 [17] was > 100 µM (inactive), the GI50 [18] was > 100 µM (inactive) and the GI50 [19] was > 100 µM (inactive). The GI50 [20] was > 100 µM (inactive), the GI50 [21] was > 100 µM (inactive) and the GI50 [22] was > 100 µM (inactive). The GI50 [23] was > 100 µM (inactive), the GI50 [24] was > 100 µM (inactive) and the GI50 [25] was > 100 µM (inactive). The GI50 [26] was > 100 µM (inactive), the GI50 [27] was > 100 µM (inactive) and the GI50 [28] was > 100 µM (inactive). The GI50 [29] was > 100 µM (inactive), the GI50 [30] was > 100 µM (inactive) and the GI50 [31] was > 100 µM (inactive). For the same compound, the GI50 [55] was > 100 µM (inactive), the GI50 [33] was > 100 µM (inactive) and the GI50 [34] was > 100 µM (inactive). The GI50 [56] was > 100 µM (inactive), the GI50 [35] was > 100 µM (inactive) and the GI50 [36] was > 100 µM (inactive). For the same compound, the GI50 [57] was > 100 µM (inactive), the GI50 [37] was > 100 µM (inactive) and the GI50 [38] was > 100 µM (inactive). The GI50 [39] was > 100 µM (inactive), the GI50 [40] was > 100 µM (inactive) and the GI50 [41] was > 100 µM (inactive). For the same compound, the GI50 [42] was > 100 µM (inactive), the GI50 [43] was > 100 µM (inactive) and the GI50 [44] was > 100 µM (inactive). For the same compound, the GI50 [58] was > 100 µM (inactive), the GI50 [45] was > 100 µM (inactive) and the GI50 [46] was > 100 µM (inactive). The GI50 [59] was > 100 µM (inactive), the GI50 [47] was > 100 µM (inactive) and the GI50 [48] was > 100 µM (inactive). For the same compound, the GI50 [49] was > 100 µM (inactive), the GI50 [50] was > 100 µM (inactive) and the GI50 [51] was > 100 µM (inactive). For the same compound, the GI50 [53] was > 100 µM (inactive) and the GI50 [54] was > 100 µM (inactive).

`O=C1CCC(O)=C1O` was tested, and the GI50 [1] was > 100 µM (inactive), the GI50 [2] was > 100 µM (inactive) and the GI50 [3] was > 100 µM (inactive). For the same compound, the GI50 [4] was > 100 µM (inactive), the GI50 [5] was > 100 µM (inactive) and the GI50 [7] was > 100 µM (inactive). For the same compound, the GI50 [8] was > 100 µM (inactive), the GI50 [9] was > 100 µM (inactive) and the GI50 [10] was > 100 µM (inactive). For the same compound, the GI50 [11] was > 100 µM (inactive), the GI50 [12] was > 100 µM (inactive) and the GI50 [13] was > 100 µM (inactive). For the same compound, the GI50 [14] was > 100 µM (inactive), the GI50 [15] was > 100 µM (inactive) and the GI50 [16] was > 100 µM (inactive). For the same compound, the GI50 [17] was > 100 µM (inactive), the GI50 [18] was > 100 µM (inactive) and the GI50 [19] was > 100 µM (inactive). For the same compound, the GI50 [20] was > 100 µM (inactive), the GI50 [21] was > 100 µM (inactive) and the GI50 [22] was > 100 µM (inactive). For the same compound, the GI50 [23] was > 100 µM (inactive), the GI50 [25] was > 100 µM (inactive) and the GI50 [26] was > 100 µM (inactive). The GI50 [27] was > 100 µM (inactive), the GI50 [28] was > 100 µM (inactive) and the GI50 [29] was > 100 µM (inactive). The GI50 [30] was > 100 µM (inactive), the GI50 [31] was > 100 µM (inactive) and the GI50 [32] was > 100 µM (inactive). For the same compound, the GI50 [55] was > 100 µM (inactive), the GI50 [33] was > 100 µM (inactive) and the GI50 [34] was > 100 µM (inactive). The GI50 [56] was > 100 µM (inactive), the GI50 [35] was > 100 µM (inactive) and the GI50 [36] was > 100 µM (inactive). For the same compound, the GI50 [57] was > 100 µM (inactive), the GI50 [37] was > 100 µM (inactive) and the GI50 [38] was > 100 µM (inactive). The GI50 [39] was > 100 µM (inactive), the GI50 [40] was > 100 µM (inactive) and the GI50 [41] was > 100 µM (inactive). For the same compound, the GI50 [42] was > 100 µM (inactive), the GI50 [43] was > 100 µM (inactive) and the GI50 [44] was > 100 µM (inactive). The GI50 [58] was > 100 µM (inactive), the GI50 [45] was > 100 µM (inactive) and the GI50 [46] was > 100 µM (inactive). The GI50 [47] was > 100 µM (inactive), the GI50 [48] was > 100 µM (inactive) and the GI50 [49] was > 100 µM (inactive). For the same compound, the GI50 [50] was > 100 µM (inactive), the GI50 [51] was > 100 µM (inactive) and the GI50 [52] was over 100 µM. The GI50 [54] was > 100 µM (inactive).
